The subject of this assay is P388 leukemia ip, CD2F1 mice, survival T/C. As to the kind of experiment: NCI In Vivo Anticancer Drug Screen. Data for tumor model P388 Leukemia (intraperitoneal) in CD2F1 (CDF1) mice. The note with it: endpoint: median survival time, higher = longer survival. The protocol: The antitumor activity of compounds was measured in mice bearing transplantable tumors. Survival or tumor size were measured and the results are expressed as the measurement made in the treated group (T) divided by the measurement made in the vehicle treated control group (C). The tumor model used in this assay is P388 Leukemia (intraperitoneal) in CD2F1 (CDF1) mice

[1] abbreviates: dose: 25.0 mg/kg/injection, schedule: Q01DX009 (ip), vehicle: Klucel (hydroxypropylcellulose) (HPC).
Setting [2] is: dose: 50.0 mg/kg/injection, schedule: Q01DX009 (ip), vehicle: Klucel (hydroxypropylcellulose) (HPC).
Setting [3] is: dose: 100.0 mg/kg/injection, schedule: Q01DX009 (ip), vehicle: Klucel (hydroxypropylcellulose) (HPC).
The mark [4] stands for this setting: dose: 100.0 mg/kg/injection, schedule: Q04DX003 (ip), vehicle: saline with Tween-80.
The mark [5] stands for this setting: dose: 25.0 mg/kg/injection, schedule: Q04DX003 (ip), vehicle: Klucel (hydroxypropylcellulose) (HPC).
Where [6] appears, read: dose: 200.0 mg/kg/injection, schedule: Q04DX003 (ip), vehicle: saline with Tween-80.
Where [7] appears, read: dose: 400.0 mg/kg/injection, schedule: Q04DX003 (ip), vehicle: saline with Tween-80.
Where [8] appears, read: dose: 100.0 mg/kg/injection, schedule: Q01DX001 (ip), vehicle: saline with Tween-80.
[9] abbreviates: dose: 200.0 mg/kg/injection, schedule: Q01DX001 (ip), vehicle: saline with Tween-80.
Setting [10] is: dose: 100.0 mg/kg/injection, schedule: Q01DX009 (ip), vehicle: saline with Tween-80.
[11] abbreviates: dose: 200.0 mg/kg/injection, schedule: Q01DX009 (ip), vehicle: saline with Tween-80.
Where [12] appears, read: dose: 400.0 mg/kg/injection, schedule: Q01DX009 (ip), vehicle: saline with Tween-80.
Where [13] appears, read: dose: 50.0 mg/kg/injection, schedule: Q01DX005 (ip), vehicle: Klucel (hydroxypropylcellulose) (HPC).
Where [14] appears, read: dose: 100.0 mg/kg/injection, schedule: Q01DX005 (ip), vehicle: Klucel (hydroxypropylcellulose) (HPC).
Where [15] appears, read: dose: 200.0 mg/kg/injection, schedule: Q01DX005 (ip), vehicle: Klucel (hydroxypropylcellulose) (HPC).
Setting [16] is: dose: 400.0 mg/kg/injection, schedule: Q01DX001 (ip), vehicle: saline with Tween-80.
Setting [17] is: dose: 50.0 mg/kg/injection, schedule: Q01DX009 (ip), vehicle: saline with Tween-80.
[18] abbreviates: dose: 200.0 mg/kg/injection, schedule: Q01DX009 (ip), vehicle: Klucel (hydroxypropylcellulose) (HPC).

Several values for one entry are separate records, joined by “and”; a condition that tells them apart may be missing. Equal values may be shown once. Toxic doses and inconclusive results are not listed.

Take `CC1CCC2(OC1)OC1CC3C4CCC5CC(O)CCC5(C)C4CCC3(C)C1C2C` (stereo unspecified): the T/C (dose: 10.0 mg/kg/injection, schedule: Q01DX009 (ip), vehicle: Klucel (hydroxypropylcellulose) (HPC)) was 108 % of control; the T/C (dose: 20.0 mg/kg/injection, schedule: Q01DX009 (ip), vehicle: Klucel (hydroxypropylcellulose) (HPC)) was 117 % of control; the T/C (dose: 40.0 mg/kg/injection, schedule: Q01DX009 (ip), vehicle: Klucel (hydroxypropylcellulose) (HPC)) is 119 % of control.

Consider `C=CCn1c(NC2=C(Cl)C(=O)c3ccccc3C2=O)cc(=O)[nH]c1=O`, for which the T/C (dose: 12.5 mg/kg/injection, schedule: Q01DX009 (ip), vehicle: Klucel (hydroxypropylcellulose) (HPC)) is 104 % of control; the T/C under setting [1] is 98 % of control; the T/C under setting [2] is 99 % of control and 98 % of control.

Regarding `CC(=O)OC(C(=O)N1CC1)C(OC(C)=O)C(OC(C)=O)C(OC(C)=O)C(=O)N1CC1` (stereo unspecified), the T/C is, setting by setting: under setting [1], 217 % of control; under setting [2], 237 % of control and 255 % of control; under setting [3], 88 % of control.

Take `Nc1nc2ccc(CNc3ccc(C(=O)NC(CCC(=O)O)C(=O)O)cc3)nc2c(=O)[nH]1` (stereo unspecified): the T/C by setting is: (dose: 50.0 mg/kg/injection, schedule: Q04DX003 (ip), vehicle: saline with Tween-80) 102 % of control; under setting [4], 155 % of control.

As to `Nc1nc(Br)c2ncn(C3OC(CO)C(O)C3O)c2n1` (stereo unspecified), the T/C is, setting by setting: (dose: 50.0 mg/kg/injection, schedule: Q01DX005 (ip), vehicle: saline with Tween-80) 101 % of control; (dose: 100.0 mg/kg/injection, schedule: Q01DX005 (ip), vehicle: saline with Tween-80) 101 % of control; (dose: 200.0 mg/kg/injection, schedule: Q01DX005 (ip), vehicle: saline with Tween-80) 94 % of control.

Regarding `CC([Se])=Nc1ccc(Br)cc1`, the T/C reads like this: (dose: 12.5 mg/kg/injection, schedule: Q04DX003 (ip), vehicle: Klucel (hydroxypropylcellulose) (HPC)) 100 % of control; under setting [5], 100 % of control.

For the molecule `C=CCOC(=O)CCl`, the T/C under setting [5] is 99 % of control; the T/C (dose: 50.0 mg/kg/injection, schedule: Q04DX003 (ip), vehicle: Klucel (hydroxypropylcellulose) (HPC)) is 98 % of control; the T/C (dose: 100.0 mg/kg/injection, schedule: Q04DX003 (ip), vehicle: Klucel (hydroxypropylcellulose) (HPC)) was 93 % of control and 96 % of control.

For the molecule `CC(=O)c1ccc(-c2ccccc2)cc1`, the T/C is, setting by setting: under setting [4], 91 % of control; under setting [6], 91 % of control; under setting [7], 95 % of control.

Consider `CCOc1cccc2nncn12`, for which the T/C was 102 % of control (dose: 100.0 mg/kg/injection, schedule: Q01DX001 (ip), vehicle: saline) and 103 % of control (dose: 200.0 mg/kg/injection, schedule: Q01DX001 (ip), vehicle: saline).

Turning to `N#Cc1ccc(NN=NCCF)cc1`, the T/C is 100 % of control (dose: 6.25 mg/kg/injection, schedule: Q01DX005 (ip), vehicle: distilled water + Tween-80); 117 % of control (dose: 6.25 mg/kg/injection, schedule: Q01DX005 (ip), vehicle: saline with Tween-80); 121 % of control (dose: 12.5 mg/kg/injection, schedule: Q01DX005 (ip), vehicle: saline with Tween-80).

Take `CC1(c2cc(Cl)c(Cl)cc2Cl)NC(=O)NC1=O` (stereo unspecified): the T/C was 103 % of control under setting [8] and 112 % of control under setting [9].

In the case of `CC1(CCOCc2ccccc2)NC(=O)NC1=O` (stereo unspecified), the T/C is 90 % of control under setting [10], 100 % of control under setting [11] and 100 % of control under setting [12].

Regarding `O=C(COc1ccc(Cl)cc1Cl)NC(O)C(Cl)(Cl)Cl` (stereo unspecified), the T/C under setting [4] is 108 % of control, the T/C under setting [6] was 116 % of control and the T/C under setting [7] is 100 % of control.

For `COc1ccc2nc3cc(Cl)ccc3c(NCCCNCCCCNCCCNc3c4ccc(Cl)cc4nc4ccc(OC)cc34)c2c1`, the T/C was 106 % of control (dose: 0.62 mg/kg/injection, schedule: Q01DX009 (ip), vehicle: other); 110 % of control (dose: 1.25 mg/kg/injection, schedule: Q01DX009 (ip), vehicle: other); 119 % of control (dose: 2.5 mg/kg/injection, schedule: Q01DX009 (ip), vehicle: other).

For `COc1c(N)c2c(c([N+](=O)[O-])c1OC)C(=O)OC2`, the T/C under setting [13] was 103 % of control, the T/C under setting [14] is 93 % of control and the T/C under setting [15] is 97 % of control.

In the case of `Oc1c2ccccc2c(O)c2nc3ccccc3nc12`, the T/C (dose: 50.0 mg/kg/injection, schedule: Q01DX009 (ip), vehicle: saline) is 100 % of control; the T/C (dose: 100.0 mg/kg/injection, schedule: Q01DX009 (ip), vehicle: saline) was 99 % of control; the T/C (dose: 200.0 mg/kg/injection, schedule: Q01DX009 (ip), vehicle: saline) is 100 % of control.

Consider `O=C(O)/C(=C/c1ccc([N+](=O)[O-])cc1)c1ccccc1`, for which the T/C under setting [13] was 102 % of control, the T/C under setting [14] is 95 % of control and the T/C under setting [15] is 102 % of control.

As to `O=C1C=C(C/C=C/c2ccccc2)C(C/C=C/c2ccccc2)C=C1O` (stereo unspecified), the T/C by setting is: (dose: 0.32 mg/kg/injection, schedule: Q01DX009 (ip), vehicle: saline with Tween-80) 102 % of control; (dose: 0.63 mg/kg/injection, schedule: Q01DX009 (ip), vehicle: saline with Tween-80) 107 % of control; (dose: 1.25 mg/kg/injection, schedule: Q01DX009 (ip), vehicle: saline with Tween-80) 103 % of control; (dose: 2.5 mg/kg/injection, schedule: Q01DX009 (ip), vehicle: saline with Tween-80) 102 % of control and 93 % of control; (dose: 10.0 mg/kg/injection, schedule: Q01DX009 (ip), vehicle: saline with Tween-80) 94 % of control.

For the molecule `CC(=O)C1C(=O)C(=O)N(c2ccc(F)cc2)C1=O` (stereo unspecified), the T/C was 103 % of control under setting [8], 99 % of control under setting [9] and 98 % of control under setting [16].

On to `O=NNc1ncccn1`, for which the T/C runs as follows: (dose: 3.12 mg/kg/injection, schedule: Q01DX009 (ip), vehicle: water) 96 % of control; (dose: 6.25 mg/kg/injection, schedule: Q01DX009 (ip), vehicle: water) 105 % of control; (dose: 12.5 mg/kg/injection, schedule: Q01DX009 (ip), vehicle: water) 93 % of control; (dose: 25.0 mg/kg/injection, schedule: Q01DX009 (ip), vehicle: water) 101 % of control; (dose: 50.0 mg/kg/injection, schedule: Q01DX009 (ip), vehicle: water) 102 % of control; (dose: 100.0 mg/kg/injection, schedule: Q01DX009 (ip), vehicle: water) 93 % of control.

On to `NC(Cc1ccccc1I)c1nn[nH]n1` (stereo unspecified), for which the T/C was 107 % of control (dose: 25.0 mg/kg/injection, schedule: Q01DX009 (ip), vehicle: saline with Tween-80); 102 % of control and 105 % of control and 111 % of control under setting [17]; 98 % of control and 100 % of control and 95 % of control under setting [10]; 110 % of control and 97 % of control under setting [11]; 100 % of control and 96 % of control under setting [12].

For the molecule `Cc1nc(Nc2ccccc2C)c2ccsc2n1`, the T/C is 91 % of control under setting [13] and 87 % of control under setting [14].

Regarding `Cc1cc(Br)ccc1N=c1scc(-c2ccc(Cl)cc2)n1C`, the T/C was 95 % of control under setting [2], 93 % of control under setting [3] and 91 % of control under setting [18].

As for `[Fe].[c-]1[c-][c-][c-](Cn2nnc3ccccc32)[c-]1.[c-]1[c-][c-][cH-][c-]1`, the T/C was 105 % of control under setting [17], 102 % of control under setting [10] and 95 % of control under setting [11].

With `CC(=O)Oc1ccc2[nH]c(C)cc2c1`, the T/C under setting [8] was 100 % of control; the T/C under setting [9] was 98 % of control; the T/C under setting [16] is 93 % of control; the T/C (dose: 800.0 mg/kg/injection, schedule: Q01DX001 (ip), vehicle: saline with Tween-80) was 103 % of control.

As for `O=C(O)Cc1ccc2c(c1)Cc1cccnc1O2`, the T/C is 108 % of control under setting [2], 96 % of control under setting [3] and 119 % of control under setting [18].

The values are drawn from PubChem BioAssay AID330 (DTP/NCI, 2004).
